In PubChem BioAssay (NCI):
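Results reflect a 48-hour exposure of cells in 96-well plates to compound at five concentrations. GI50 marks 50% less growth. Definition used: TGI = concentration required for complete inhibition of growth.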

Legend:
Experiment in all cases: NCI tumour cell line growth inhibition, 48 h
KM12 colon = test system: KM12 colon
ACHN renal = test system: ACHN renal
SF-268 CNS = test system: SF-268 CNS
HOP-62 NSCLC = test system: HOP-62 NSCLC
RPMI-8226 leukemia = test system: RPMI-8226 leukemia
HL-60(TB) leukemia = test system: HL-60(TB) leukemia
SF-539 CNS = test system: SF-539 CNS
LOX IMVI melanoma = test system: LOX IMVI melanoma
NCI/ADR-RES ovarian = test system: NCI/ADR-RES ovarian
IGROV1 ovarian = test system: IGROV1 ovarian

Row | Compound | GI50 (KM12 colon) [µM] | TGI (KM12 colon) [µM] | GI50 (ACHN renal) [µM] | TGI (ACHN renal) [µM] | GI50 (SF-268 CNS) [µM] | TGI (SF-268 CNS) [µM] | GI50 (HOP-62 NSCLC) [µM] | TGI (HOP-62 NSCLC) [µM] | GI50 (RPMI-8226 leukemia) [µM] | TGI (RPMI-8226 leukemia) [µM] | GI50 (HL-60(TB) leukemia) [µM] | TGI (HL-60(TB) leukemia) [µM] | GI50 (SF-539 CNS) [µM] | TGI (SF-539 CNS) [µM] | GI50 (LOX IMVI melanoma) [µM] | TGI (LOX IMVI melanoma) [µM] | GI50 (NCI/ADR-RES ovarian) [µM] | TGI (NCI/ADR-RES ovarian) [µM] | TGI (IGROV1 ovarian) [µM] | GI50 (IGROV1 ovarian) [µM]
1 | CSc1ccccc1C#C/C=C\C#Cc1ccccc1N | 2.92 | 10.4 | 20.1 | > 100 | 3.3 | 25.4 | 5.39 | 26.3 | 2.72 | 12.7 | 3.97 | > 100 | 7.2 | 23.6 | 9.52 | 25.2 | 4.05 | 16 | – | –
2 | CC(C)=CCc1cc2c(cc1O)OC[C@H]1c3cc4c(cc3O[C@@H]21)OCO4 | – | > 100 | – | > 100 | – | > 100 | – | > 100 | – | – | – | 71.9 | – | > 100 | – | 31.7 | – | 76.1 | > 100 | –
3 | Oc1ccc(Nc2c3ccccc3nc3occ(Cl)c23)cc1 | 2.78 | 17 | 15.2 | > 100 | 4.26 | > 100 | 4.37 | 36.2 | 1.61 | 4.81 | – | – | – | – | 6.68 | > 100 | 2.69 | 18.2 | 5.32 | 1.19
4 | C=CCC1(CN(C)C)CC/C(=C\c2ccc(Cl)cc2)C1=O (stereo not drawn) | – | > 78.5 | – | > 100 | – | > 100 | – | > 100 | – | 53.6 | – | 74.4 | – | > 83.8 | – | 52 | – | – | > 31.6 | –
5 | CC(C)OC(=O)[C@H](C)NP(=O)(OC[C@H]1O[C@@H](n2ccc(=O)[nH]c2=O)[C@](C)(F)[C@@H]1O)Oc1ccccc1 (stereo partly drawn) | > 100 | > 100 | > 100 | > 100 | > 100 | > 100 | > 100 | > 100 | – | – | > 100 | > 100 | > 100 | > 100 | > 100 | > 100 | > 100 | > 100 | > 100 | > 100
6 | [N-]=[N+]=N/C1=C/CCCCC(=O)C1 | – | – | – | – | – | > 100 | – | > 100 | – | > 100 | – | > 100 | – | – | – | > 100 | – | – | > 100 | –
7 | COC(=O)c1s/c(=N\C(=S)N(C)C)n(-c2ccc(Cl)cc2)c1C(=O)OC | – | > 100 | – | > 100 | – | > 100 | – | > 100 | – | > 100 | – | > 100 | – | > 100 | – | > 100 | – | – | > 10 | –
8 | O=c1[nH]c2ccc(O)cc2o1 | – | > 100 | – | > 100 | – | > 100 | – | > 100 | – | – | – | > 100 | – | > 100 | – | – | – | > 100 | > 100 | –
9 | C[Si](C)(C)/C(Br)=C\CCN1C(=O)CCC1=O | – | > 100 | – | > 100 | – | > 100 | – | > 100 | – | – | – | > 100 | – | > 100 | – | > 100 | – | – | > 100 | –
10 | COc1ccc(/C(=C\C=C(C#N)C#N)Sc2nc3ccccc3s2)cc1 | 10.6 | 31.3 | – | – | 8.53 | 25.2 | 8.16 | 16.7 | – | – | – | – | 1.19 | 2.59 | – | – | 3.69 | 12.6 | 46.4 | 10
